From ChEMBL document CHEMBL6109064, “Functional and structural polypharmacology of indazole-based privileged ligands to tackle the undruggability of membrane transporters” (Eur J Med Chem, 2025)

Key:
[1] = molecular target: T1, Solute carrier family 22 member 2 (Homo sapiens, UniProt O15244); experiment: Inhibition of OCT2 (unknown origin) expressed in HEK293 cells assessed as inhibition of ASP+ uptake incubated for 5 mins by fluorescence based analysis; assay type: cell-based
T1 sequence (O15244 whole entry): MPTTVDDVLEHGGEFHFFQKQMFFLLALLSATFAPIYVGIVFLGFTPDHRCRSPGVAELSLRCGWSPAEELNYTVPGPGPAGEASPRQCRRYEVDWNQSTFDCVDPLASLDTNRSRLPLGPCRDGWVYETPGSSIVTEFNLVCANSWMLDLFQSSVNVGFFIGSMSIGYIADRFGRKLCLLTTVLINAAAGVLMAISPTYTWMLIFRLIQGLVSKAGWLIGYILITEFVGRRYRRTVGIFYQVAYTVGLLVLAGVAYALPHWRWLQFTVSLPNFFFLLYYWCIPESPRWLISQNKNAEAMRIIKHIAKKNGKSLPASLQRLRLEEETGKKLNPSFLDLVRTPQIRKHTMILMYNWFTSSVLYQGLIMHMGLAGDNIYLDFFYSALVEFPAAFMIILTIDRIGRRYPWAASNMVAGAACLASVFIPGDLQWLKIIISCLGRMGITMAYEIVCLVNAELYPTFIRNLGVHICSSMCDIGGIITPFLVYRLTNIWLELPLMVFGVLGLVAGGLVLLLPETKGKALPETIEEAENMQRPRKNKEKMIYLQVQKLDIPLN

[2] = molecular target: T2, Broad substrate specificity ATP-binding cassette transporter ABCG2 (Homo sapiens, UniProt Q9UNQ0); experiment: Inhibition of ABCG2 (unknown origin) expressed in dog MDCK-II-BCRP cells assessed as increase in pheophorbide A fluorescence intensity using pheophorbide as tracer preincubated for 30 mins followed by pheophorbide addition and measured for 180 mins by flow cytometry; assay type: cell-based
T2 sequence (Q9UNQ0 whole entry): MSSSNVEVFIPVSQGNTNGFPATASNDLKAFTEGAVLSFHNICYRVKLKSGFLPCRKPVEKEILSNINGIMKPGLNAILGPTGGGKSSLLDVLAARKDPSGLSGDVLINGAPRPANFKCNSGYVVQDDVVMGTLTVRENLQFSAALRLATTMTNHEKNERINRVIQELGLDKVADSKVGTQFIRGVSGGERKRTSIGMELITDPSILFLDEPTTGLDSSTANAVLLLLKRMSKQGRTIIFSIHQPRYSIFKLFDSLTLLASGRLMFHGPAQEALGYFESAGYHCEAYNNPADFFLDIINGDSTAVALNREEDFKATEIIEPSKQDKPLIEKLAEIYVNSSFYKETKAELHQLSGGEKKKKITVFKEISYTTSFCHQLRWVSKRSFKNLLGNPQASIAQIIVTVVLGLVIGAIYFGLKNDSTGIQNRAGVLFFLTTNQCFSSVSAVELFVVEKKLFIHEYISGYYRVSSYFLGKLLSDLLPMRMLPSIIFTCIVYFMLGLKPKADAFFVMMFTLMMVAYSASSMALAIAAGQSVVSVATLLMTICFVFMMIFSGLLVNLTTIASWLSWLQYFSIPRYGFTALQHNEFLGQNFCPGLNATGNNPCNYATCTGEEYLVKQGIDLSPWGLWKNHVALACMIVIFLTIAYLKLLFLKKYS

[3] = Inhibition of ABCA1 (unknown origin) expressed in mouse J774.A1 cells assessed as inhibition of 25-NBD-cholesterol fluorescence intensity preincubated for 24 hrs followed by 25-NBD-cholesterol addition and measured after 48 hrs by flow cytometry; assay type: cell-based, Homo sapiens
[4] = molecular target: T3, ATP-binding cassette sub-family C member 10 (Homo sapiens, UniProt Q5T3U5); experiment: Reversal of ABCC10 (unknown origin) -mediated multidrug resistance transfected in human HEK293 MRP7 cells assessed as increase in paclitaxel-mediated cytotoxicity incubated for 68 hrs in presence of paclitaxel by MTT assay; assay type: cell-based
T3 sequence (Q5T3U5 whole entry): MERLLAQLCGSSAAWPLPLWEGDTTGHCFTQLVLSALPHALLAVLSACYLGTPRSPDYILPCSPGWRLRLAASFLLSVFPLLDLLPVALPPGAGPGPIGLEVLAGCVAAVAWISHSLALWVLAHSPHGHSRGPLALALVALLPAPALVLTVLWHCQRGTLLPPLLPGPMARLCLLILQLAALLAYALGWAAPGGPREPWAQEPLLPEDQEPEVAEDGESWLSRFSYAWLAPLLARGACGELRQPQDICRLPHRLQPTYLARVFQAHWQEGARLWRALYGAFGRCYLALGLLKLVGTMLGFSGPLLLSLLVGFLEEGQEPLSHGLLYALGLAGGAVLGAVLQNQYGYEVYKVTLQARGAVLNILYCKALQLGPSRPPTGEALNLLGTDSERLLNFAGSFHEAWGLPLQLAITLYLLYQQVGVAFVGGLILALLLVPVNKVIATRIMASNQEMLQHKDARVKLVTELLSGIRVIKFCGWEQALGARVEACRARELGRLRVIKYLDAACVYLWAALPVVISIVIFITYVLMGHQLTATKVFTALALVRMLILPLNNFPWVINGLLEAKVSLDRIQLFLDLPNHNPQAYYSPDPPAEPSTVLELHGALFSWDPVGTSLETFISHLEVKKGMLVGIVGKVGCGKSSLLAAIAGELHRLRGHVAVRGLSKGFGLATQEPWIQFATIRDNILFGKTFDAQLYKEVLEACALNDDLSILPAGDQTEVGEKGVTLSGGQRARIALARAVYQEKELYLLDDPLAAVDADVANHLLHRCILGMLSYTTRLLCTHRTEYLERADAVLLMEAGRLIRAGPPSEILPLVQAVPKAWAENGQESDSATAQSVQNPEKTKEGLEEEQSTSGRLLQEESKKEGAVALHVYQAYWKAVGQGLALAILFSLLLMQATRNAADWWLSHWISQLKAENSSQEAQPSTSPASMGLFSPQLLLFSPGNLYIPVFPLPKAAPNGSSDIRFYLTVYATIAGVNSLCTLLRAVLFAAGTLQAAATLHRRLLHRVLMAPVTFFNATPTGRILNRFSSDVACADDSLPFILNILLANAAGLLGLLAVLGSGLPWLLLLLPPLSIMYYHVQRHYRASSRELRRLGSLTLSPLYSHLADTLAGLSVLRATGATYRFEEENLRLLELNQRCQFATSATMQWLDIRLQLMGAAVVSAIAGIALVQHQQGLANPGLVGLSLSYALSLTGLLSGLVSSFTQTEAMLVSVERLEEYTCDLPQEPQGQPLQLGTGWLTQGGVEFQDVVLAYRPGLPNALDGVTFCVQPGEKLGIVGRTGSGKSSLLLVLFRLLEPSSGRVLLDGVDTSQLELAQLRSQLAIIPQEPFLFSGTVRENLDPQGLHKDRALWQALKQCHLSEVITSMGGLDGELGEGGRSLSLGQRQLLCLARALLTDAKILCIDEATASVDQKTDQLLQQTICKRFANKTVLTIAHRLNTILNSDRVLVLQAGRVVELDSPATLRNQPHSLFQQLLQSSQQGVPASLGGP

SMILES	IC50 [1] [µM]	IC50 [2] [µM]	IC50 [3]	EC50 [4]	IC50 ([3]; read-out: IC50) [µM]
COc1cccc(NC(=O)c2nn(CC(=O)Nc3ccccc3OC)c3ccccc23)c1	11.8	1.66	Not_active	Not_active	–
O=C(Cn1nc(C(=O)Nc2cccnc2)c2ccccc21)Nc1ccc(Cl)cc1	60.1	14.2	–	–	4.7
COc1cccc(NC(=O)Cn2nc(C(=O)Nc3cccc(OC)c3)c3ccccc32)c1	20.8	1.33	Not_active	Not_active	–
O=C(Cn1nc(C(=O)Nc2ccccn2)c2ccccc21)Nc1cc(Cl)ccc1Cl	50.3	1.17	–	Not_active	13
